Three molecules from ChEMBL document CHEMBL4842340, “Development of Cagrilintide, a Long-Acting Amylin Analogue” (J Med Chem, 2021) can be followed below.

In brackets after ≈: the same amount, converted by molar mass. *1 amine or outer side, *2 acyl side, *3 side chain or, on linkers, in order; H or OH if unused. Where a SMILES comes first, the peptide text is derived from it. Bridges are numbered along the chain shown (N, C = ends). [ ]: non-standard residue; d: D form. The star is where a group is joined. X1 = O=C(NC(=O)[C@H](Cc1cnc[nH]1)N[*:1])[C@@H](Cc1cnc[nH]1)C(=O)[*:2]; C20 diacid = O=C(O)CCCCCCCCCCCCCCCCCCC(=O)*; γGlu = O=C(O)[C@H](CCC(=O)[*:2])N[*:1]; hArg = N=C(N)NCCCC[C@H](N)C(=O)O; Agb = N=C(N)NCC[C@H](N)C(=O)O

Data set [1] is described as follows: Agonist activity at human AMY3R (CT+RAMP3) expressed in Hollex1 cells incubated for 3 hrs by luminescence assay. The format is cell-based. As to conditions: Hollex1, 3 h.
Data set [2] can be described thus: Agonist activity at human calcitonin receptor expressed in BHK570 cells assessed as increase in intracellular cAMP concentration incubated for 3 hrs in absence of albumin by CRE luciferase reporter gene assay. The format is cell-based. As to conditions: BHK570, 3 h. A general note: A reporter such as luciferase makes a cellular process visible.
A further data set is filed under the species Homo sapiens. In words: Ratio of EC50 for human calcitonin receptor expressed in BHK570 cells to EC50 for human AMY3R (CT+RAMP3) expressed in Hollex1 cells. The format is cell-based.
Data set [3] in a line: Agonist activity at rat AMY3R (CT+RAMP3) expressed in tk-ts13 cells assessed as increase in intracellular cAMP level incuabted for 25 mins by CRE luciferase reporter gene assay. The format is cell-based. As to conditions: tk-ts13, 25 min. For orientation: Cyclic AMP is a second messenger, typically raised through Gs and lowered through Gi signalling.
The nature of data set [4]: Agonist activity at rat calcitonin receptor expressed in BHK-13 cells assessed as increase in intracellular cAMP concentration incubated for 25 mins by CRE luciferase reporter gene assay. The format is cell-based. As to conditions: BHK-13, 25 min.
The species entered for data set [5] is Rattus norvegicus. In words: Ratio of EC50 for rat calcitonin receptor expressed in BHK-13 cells to EC50 for rat AMY3R (CT+RAMP3) expressed in tk-ts13 cells. It is filed as cell-based.
A short description of data set [6]: Displacement of [125I]-amylin from human AMY3R (CTR+RAMP3) expressed in BHK-13 cells measured after 120 mins by scintillation proximity assay. The format is cell-based. (In a radioligand displacement assay an active substance lowers the binding of a labelled ligand.)
A short description of data set [7]: Solubility of the compound in lactate at pH 3 by UPLC analysis. The format is physicochemical. Particulars: lactate buffer.
The nature of data set [8]: Solubility of the compound in lactate at pH 4 by UPLC analysis. As to conditions: lactate buffer. The format is physicochemical.
The nature of data set [9]: Solubility of the compound in lactate at pH 5 by UPLC analysis. It is filed as physicochemical. Particulars: lactate buffer.
Data set [10] can be described thus: Solubility of the compound in bis-tris propane at pH 6 by UPLC analysis. The format is physicochemical. As to conditions: bis-tris propane buffer.
Data set [11] in a line: Solubility of the compound in bis-tris propane at pH 8 by UPLC analysis. The format is physicochemical. As to conditions: bis-tris propane buffer.
The target in data set [12] is Insulin (Homo sapiens) (UniProt P01308). Put plainly: Effect on insulin (unknown origin) amyloid fibril formation assessed as lag time in glycyl-glycine buffer at pH 4 measured after 45 hrs by thioflavin-T fluorescence assay.
Sequence of Insulin (Homo sapiens) (P01308 whole entry): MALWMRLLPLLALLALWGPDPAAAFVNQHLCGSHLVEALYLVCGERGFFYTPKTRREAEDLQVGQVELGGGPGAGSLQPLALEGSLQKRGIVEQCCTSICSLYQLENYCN
For data set [13] the target is unchanged. In words: Effect on insulin (unknown origin) amyloid fibril formation assessed as peptide recovery in glycyl-glycine buffer at pH 4 measured after 45 hrs by thioflavin-T fluorescence assay relative to control. More on the design: concentration or dose not given beside the values.
The subject of data set [14] is Rattus norvegicus. Put plainly: Reduction in food intake in Sprague-Dawley rat at 30 nmol/kg, sc administered as single dose measured upto 24 hrs relative to control. It is filed as functional. Further details: scale not given: the % may be the effect or the level left. Particulars: time hrs <=24.
Data set [15] relates to Rattus norvegicus. Put plainly: Reduction in food intake in Sprague-Dawley rat at 30 nmol/kg, sc administered as single dose measured after 24 to 48 hrs relative to control. The format is functional. More on the design: scale not given: the % may be the effect or the level left. As to conditions: time 24-48 hrs.
The nature of data set [16]: Solubility of the compound in bis-tris propane at pH 6.5 by UPLC analysis. As to conditions: bis-tris propane buffer. The format is physicochemical.
Data set [17] is described as follows: Solubility of the compound in bis-tris propane at pH 7 by UPLC analysis. As to conditions: bis-tris propane buffer. The format is physicochemical.
The nature of data set [18]: Solubility of the compound in bis-tris propane at pH 7.5 by UPLC analysis. Particulars: bis-tris propane buffer. The format is physicochemical.

Usually EC50 stands for the concentration that produces a half-maximal response. As usually defined, the IC50 is the midpoint of a concentration-inhibition curve. In general, solubility refers to the concentration that dissolves in the medium under given conditions. As to `CC[C@H](C)[C@H](NC(=O)[C@@H]1CCCN1C(=O)CNC(=O)[C@H](Cc1ccccc1)NC(=O)[C@H](CC(N)=O)NC(=O)[C@H](CC(N)=O)NC(=O)[C@H](CO)NC(=O)[C@H](CO)NC(=O)[C@H](Cc1cnc[nH]1)NC(=O)[C@H](Cc1cnc[nH]1)NC(=O)[C@H](CC(C)C)NC(=O)[C@H](Cc1ccccc1)NC(=O)[C@H](CCC(=O)O)NC(=O)[C@H](C)NC(=O)[C@H](CC(C)C)NC(=O)[C@H](CCCNC(=N)N)NC(=O)[C@H](CCC(N)=O)NC(=O)[C@@H](NC(=O)[C@H](C)NC(=O)[C@@H]1CSSC[C@H](NC(=O)[C@H](Cc2cnc[nH]2)NC(=O)[C@H](Cc2cnc[nH]2)NC(=O)[C@H](Cc2cnc[nH]2)NC(=O)CC[C@H](NC(=O)CCCCCCCCCCCCCCCCCCC(=O)O)C(=O)O)C(=O)N[C@@H](CC(N)=O)C(=O)N[C@@H]([C@@H](C)O)C(=O)N[C@@H](C)C(=O)N[C@@H]([C@@H](C)O)C(=O)N1)[C@@H](C)O)C(=O)N[C@@H](CC(C)C)C(=O)N1CCC[C@H]1C(=O)N1CCC[C@H]1C(=O)N[C@H](C(=O)N[C@@H](CC(N)=O)C(=O)N[C@H](C(=O)NCC(=O)N[C@@H](CO)C(=O)N[C@@H](CC(N)=O)C(=O)N[C@H](C(=O)N[C@@H](Cc1ccc(O)cc1)C(N)=O)[C@@H](C)O)C(C)C)[C@@H](C)O` ({C20 diacid-γGlu}-HHHCNTATCATQRLAEFLHHSSNNFGPILPPTNVGSNTY-NH2; disulfide 4-9), the EC50 in data set [1] came to 0.074 nM; in data set [2], 0.2 nM; in [3], 0.083 nM; in data set [4], 0.857 nM. Further, the Ratio EC50 turned out to be 3 in the data set filed under Homo sapiens and 10 in the data set listed under Rattus norvegicus [5]. In [6], the IC50 stood at 0.723 nM. The solubility in data set [7], in [8], in data set [9], in data set [10] and in [11] was 200 µM (≈ 948 µg/mL) each time. The TIME at Insulin (Homo sapiens) [12] worked out at 7 h. In addition, the Activity at Insulin (Homo sapiens) [13] amounted to 3%; in the data set with Rattus norvegicus [14], 87%; in the data set on Rattus norvegicus [15], 92%.

Regarding `CC[C@H](C)[C@H](NC(=O)[C@@H]1CCCN1C(=O)CNC(=O)[C@H](Cc1ccccc1)NC(=O)[C@H](CC(N)=O)NC(=O)[C@H](CC(N)=O)NC(=O)[C@H](CO)NC(=O)[C@H](CO)NC(=O)[C@H](Cc1cnc[nH]1)NC(=O)[C@H](Cc1cnc[nH]1)NC(=O)[C@H](CC(C)C)NC(=O)[C@H](Cc1ccccc1)NC(=O)[C@H](CC(N)=O)NC(=O)[C@H](C)NC(=O)[C@H](CC(C)C)NC(=O)[C@H](CCNC(=N)N)NC(=O)[C@H](CCC(N)=O)NC(=O)[C@@H](NC(=O)[C@H](C)NC(=O)[C@@H]1CSSC[C@H](NC(=O)[C@H](Cc2cnc[nH]2)NC(=O)[C@H](Cc2cnc[nH]2)C(=O)NC(=O)[C@H](Cc2cnc[nH]2)NC(=O)CC[C@H](NC(=O)CCCCCCCCCCCCCCCCCCC(=O)O)C(=O)O)C(=O)N[C@@H](CC(N)=O)C(=O)N[C@@H]([C@@H](C)O)C(=O)N[C@@H](C)C(=O)N[C@@H]([C@@H](C)O)C(=O)N1)[C@@H](C)O)C(=O)N[C@@H](CC(C)C)C(=O)N1CCC[C@H]1C(=O)N1CCC[C@H]1C(=O)N[C@H](C(=O)N[C@@H](CC(N)=O)C(=O)N[C@H](C(=O)NCC(=O)N[C@@H](CO)C(=O)N[C@@H](CC(N)=O)C(=O)N[C@H](C(=O)N[C@@H](Cc1ccc(O)cc1)C(N)=O)[C@@H](C)O)C(C)C)[C@@H](C)O` ({C20 diacid-γGlu}-[X1]HCNTATCATQ[Agb]LANFLHHSSNNFGPILPPTNVGSNTY-NH2; disulfide 3-8), the EC50 worked out at 0.095 nM in data set [1], 0.961 nM in data set [2], 1.03 nM in data set [3] and 18.4 nM in [4]. The figures for the Ratio EC50 in the data set listed under Homo sapiens and in the data set listed under Rattus norvegicus [5] were 10 and 18, respectively. In addition, the IC50 in data set [6] amounted to 1.29 nM. Moreover, the solubility in [7] amounted to 200 µM (≈ 948 µg/mL); in data set [8], 200 µM (≈ 948 µg/mL); in data set [9], 200 µM (≈ 948 µg/mL); in data set [10], 200 µM (≈ 948 µg/mL); in data set [16], 115 µM (≈ 545 µg/mL); in [17], 7 µM (≈ 33.2 µg/mL). Moreover, the solubility came out at 5 µM (≈ 23.7 µg/mL) in data set [18] and 19 µM (≈ 90 µg/mL) in [11]. In addition, the TIME at Insulin (Homo sapiens) [12] is 7 h. For the same molecule, the Activity at Insulin (Homo sapiens) [13] was determined as 7%; with Rattus norvegicus [14], 28%; with Rattus norvegicus [15], 0%.

For the molecule `CC[C@H](C)[C@H](NC(=O)[C@@H]1CCCN1C(=O)CNC(=O)[C@H](Cc1ccccc1)NC(=O)[C@H](CC(N)=O)NC(=O)[C@H](CC(N)=O)NC(=O)[C@H](CO)NC(=O)[C@H](CO)NC(=O)[C@H](Cc1cnc[nH]1)NC(=O)[C@H](Cc1cnc[nH]1)NC(=O)[C@H](CC(C)C)NC(=O)[C@H](Cc1ccccc1)NC(=O)[C@H](CC(N)=O)NC(=O)[C@H](C)NC(=O)[C@H](CC(C)C)NC(=O)[C@H](CCCCNC(=N)N)NC(=O)[C@H](CCC(N)=O)NC(=O)[C@@H](NC(=O)[C@H](C)NC(=O)[C@@H]1CSSC[C@H](NC(=O)[C@H](Cc2cnc[nH]2)NC(=O)[C@H](Cc2cnc[nH]2)C(=O)NC(=O)[C@H](Cc2cnc[nH]2)NC(=O)CC[C@H](NC(=O)CCCCCCCCCCCCCCCCCCC(=O)O)C(=O)O)C(=O)N[C@@H](CC(N)=O)C(=O)N[C@@H]([C@@H](C)O)C(=O)N[C@@H](C)C(=O)N[C@@H]([C@@H](C)O)C(=O)N1)[C@@H](C)O)C(=O)N[C@@H](CC(C)C)C(=O)N1CCC[C@H]1C(=O)N1CCC[C@H]1C(=O)N[C@H](C(=O)N[C@@H](CC(N)=O)C(=O)N[C@H](C(=O)NCC(=O)N[C@@H](CO)C(=O)N[C@@H](CC(N)=O)C(=O)N[C@H](C(=O)N[C@@H](Cc1ccc(O)cc1)C(N)=O)[C@@H](C)O)C(C)C)[C@@H](C)O` ({C20 diacid-γGlu}-[X1]HCNTATCATQ[hArg]LANFLHHSSNNFGPILPPTNVGSNTY-NH2; disulfide 3-8), the concentration giving a half-maximal response (EC50) amounted to 0.102 nM in data set [1], 0.391 nM in data set [2], 0.321 nM in data set [3] and 4.48 nM in [4]. The Ratio EC50 in the data set filed under Homo sapiens is 4; in the data set filed under Rattus norvegicus [5] it was 7. Besides, the IC50 in data set [6] is 1.11 nM. Further, the solubility in [7] was 200 µM (≈ 953 µg/mL); in data set [8] it was 200 µM (≈ 953 µg/mL); in data set [9] it was 200 µM (≈ 953 µg/mL); in data set [10] it was 200 µM (≈ 953 µg/mL); in data set [16], 50 µM (≈ 238 µg/mL); in data set [17], 2 µM (≈ 9.53 µg/mL). Besides, the figures for the solubility in [18] and in data set [11] were 7 µM (≈ 33.4 µg/mL) and 25 µM (≈ 119 µg/mL), respectively. The TIME on Insulin (Homo sapiens) [12] amounted to 4 h. The Activity worked out at 21% at Insulin (Homo sapiens) [13], 24% in the data set on Rattus norvegicus [14] and 2% in the data set with Rattus norvegicus [15].
